Test results published in publication PMC10800708, “Efficacies and ADME properties of redox active methylene blue and phenoxazine analogues for use in new antimalarial triple drug combinations with amino-artemisinins” (Frontiers in Pharmacology, 2024).
Several values for one entry are separate records, joined by “and”; a condition that tells them apart may be missing. Equal values may be shown once. Read-outs that look alike come from different tables or passages of the source.

How the values were obtained:
[1] = system: CQ-sensitive Plasmodium falciparum NF54 strain; assay: Fixed ratio combination (isobologram) experiments, 72-h pLDH assay; assay type: cell-based; conditions: asexual blood stages, Pf NF54, fixed ratio isobologram
Method: Artemisone was used in the combination studies with each of AD01 and PhX6. Combination studies were conducted using a modified version of the method described by [Fivelman et al. (2004)] ([Fivelman et al., 2004]). Against drug-sensitive NF54 P. falciparum parasites in the standard 72-h pLDH assay. The drug stocks were then mixed to make 6 different volumetric ratios to obtain a range of concentrations (Table 2). Concentration ranges for combinations were prepared from the predetermined single IC50 values (Table 3) such that the IC50 of the individual compounds would be in the middle of the plate. The FIC50 and ∑FIC were calculated as described in Eqs 6–8 ([Fivelman et al., 2004]).
Eq. 6: FIC50 of compound A FIC50A=IC50 A+B/IC50 A
Eq. 7: FIC50 of compound B FIC50B=IC50 B+A/IC50 B
Finally, FIC50 values of compounds in respective combinations were plotted as isobolograms.
Although there is currently no standardised method to determine drug combination effects, many models are available ([Wagner and Ulrich-Merzenich, 2009]; [Matthews et al., 2017]). The fixed ratio isobologram method has been widely used in many fields including antimalarial drug discovery and development ([Fivelman et al., 2004]; [Wagner and Ulrich-Merzenich, 2009]; [Matthews et al., 2017]). […] The relationship can also be determined by plotting the FIC50 of each compound on separate axes to create an isobologram. […]

[2] = Metabolic stability in human liver microsomes; assay type: in vitro ADME
Method: Eq. 4 Predicted t1/2 t1/2=−0.693/λ (4) Where λ is the slope of the Ln % parent remaining vs. time curve. • v. Plasma protein binding. Plasma protein binding was determined in pooled human plasma using an ultracentrifugation method. Stock solutions of test compounds (10 mM) were diluted in phosphate buffer and spiked into plasma in deep well 96-well plates (10 µM). An aliquot of each compound was immediately precipitated with ice cold acetonitrile containing the internal standard carbamazepine (0.1 μM). These served as total concentration samples. After incubation in a water bath at 37°C for 1 h, the samples were transferred to ultracentrifuge tubes in duplicate and centrifuged for 4 h at 37°C and 30,000 g (Optima L-80XP, Beckman). Following centrifugation, the supernatant was transferred to the plate containing the total concentration samples and precipitated with ice cold acetonitrile containing the internal standard. Analyte concentrations of all compounds were determined via LC-MS/MS (reverse phase Gemini NX-C18 column and Shimadzu HPLC coupled with an AB Sciex 3200 Q TRAP MS) as described above. • vi. Metabolic stability. A 5-point metabolic stability assay in human and mouse liver microsomes were performed in duplicate in 96-well plates. […] The cofactor NADPH was added, and the reactions were subsequently stopped at time points 5, 10, 30 and 60 min by removal of an aliquot and quenching with ice cold acetonitrile containing the internal standard. The supernatant of all samples was analysed via LC-MS/MS analysis (reverse phase Gemini NX-C18 column and Shimadzu HPLC and AB Sciex 3200 Q TRAP MS) as described above.

[3] = system: Chinese Hamster Ovary (CHO) cell line, CHO-K1; assay: MTT cytotoxicity assay; assay type: cell-based; conditions: for IC50: Cricetulus griseus, CHO cells, MTT; for Selectivity index CHO/resistant Pf strain: cytotoxicity IC50/activity IC50, CHO/DD2; for Selectivity index CHO/sensitive Pf strain: cytotoxicity IC50/activity IC50, CHO/NF54
Method: Cytotoxicity assays were conducted against the Chinese Hamster Ovary (CHO) cell line, ATCC CCL-61, strain CHO-K1. […] Cells were grown at 37°C in a humidified atmosphere of 5% CO2 and maintained by passage. Cells lines were seeded in 96-well microtitre plates at 10^4 cells/well in cell medium. […] DMSO (100 µL) was added to dissolve the MTT formazan precipitate, and the plates were gently agitated for 2 min to ensure homogeneity. Absorbance was measured at 540 nm using a Turner BioSystems, Inc. ModulusTM II Microplate Reader. The data were analyzed by nonlinear regression analysis using the GraphPad PRISM version 5.00 program to determine the IC50 of each compound.

[4] = In vivo PK, iv and oral, whole blood; design: species or system C57BL/6 mice; conditions: for Vd / clearance / half-life / Cmax / Tmax: C57BL/6, mouse; for Vd / clearance / half-life / AUC0-∞ / Oral Cmax relative to the IC50 value / BA: mice; for Cmax / Tmax: po, 5 mg/kg; for BA: oral bioavailability
Method: • i. Animals. […] Food and water were available ad libitum. Mice were acclimatised to the experimental environment for 4-5 days prior to initiating the experiments. • ii. Oral drug administration. AD01 and PhX6 were prepared in 100% Millipore […] prepared in an aqueous suspension of 0.5% HPMC (w/v) containing 0.2% Tween 80 (v/v). The weighed compounds were sonicated and vortexed to ensure all solutions were homogenous. […] The total volume per administration was 200 μL. Blood samples were collected post-dose in lithium heparin microvials via tail bleeding at predetermined intervals at 0.5, 1, 3, 5, 8, 10 and 24 h. Samples were gently vortexed and stored at -80°C until analysis. • iii. Intravenous administration. AD01 and PhX6 were prepared in 100% Millipore […] prepared in an organic vehicle consisting of 10% N,N-dimethylacetamide, 30% polyethylene glycol 400 (PEG), 50% polypropylene glycol (PPG) and 10% ethanol (1:3:5:1, v/v) for intravenous (iv) dosing at 10 mg/kg. The total volume of administration was 80 μL. Blood samples were collected post-dose in lithium heparin microvials via tail bleeding at predetermined intervals at 0.16, 0.5, 1, 3, 5, 8, 10 and 24 h. Samples were gently vortexed and stored at -80°C until analysis. • iv. Sample processing and analysis. […] The mixture was vortexed vigorously for 1 min, and 5 μL of the supernatant were injected onto the analytical column following centrifugation (5590 g for 5 min). A Shimadzu HPLC and reverse phase Gemini NX-C18 column coupled to an AB Sciex 3200 Q TRAP MS was operated at unit resolution in the multiple reaction monitoring (MRM) mode as described above. […] Data analysis. Drug concentration versus time plots for each compound were used to determine maximal drug concentration C max, time T max to reach C max, elimination half-life t 1/2 and the area under the concentration-time curve from time zero to infinity, AUC0-inf. From these values the PK parameters clearance CL, volume of distribution Vd and oral bioavailability BA were determined using the non-compartmental analysis Microsoft Excel Add-In PKSolver ([Zhang et al., 2010]).

[5] = 10 mg/kg, intravenous, whole blood
[6] = whole blood, iv, 10 mg/kg, intravenous, whole blood, read-out: t1/2 (converted)
[7] = oral gavage: AD01 4.6, PhX6 4.5, DpNEt 5 mg/kg

Q: Which “Interaction in combination with artemisone (overall, in words)” value [1] does the source give for CCN(CC)c1ccc2nc3ccc(=[N+](CC)CC)cc-3sc2c1 [AD01] here?
A: The value was “enhanced synergistically”.

Q: What about the CLint scaled [2] of the same compound?
A: The CLint scaled was 16.2 mL/min/kg.

Q: What about the IC50 [3] of the same compound?
A: Its IC50 is 74 ± 9.4 µM.

Q: And the “Selectivity index CHO/resistant Pf strain” value [3]?
A: The value was >1,000.

Q: What about the “Selectivity index CHO/sensitive Pf strain” value [3] of the same compound?
A: The value was >1,000.

Q: What about the Vd [4, 5] of the same compound?
A: Its Vd is 16.2 ± 1.73 L/kg.

Q: What about the clearance [4, 5] of the same compound?
A: Its clearance is 74.4 ± 6.68 mL/min/kg.

Q: And the half-life [4, 6]?
A: Its half-life is 151 ± 4.2 min.

Q: What about the Cmax ([4]; whole blood) of the same compound?
A: The Cmax was 250 ± 50 nM.

Q: And the Tmax ([4]; whole blood)?
A: The Tmax was 52.8 ± 7.8 min.

Q: And the “AUC0-∞” value ([4]; intravenous, whole blood)?
A: The value was 186 ± 15 µmol·min/L.

Q: What about the “Oral Cmax relative to the IC50 value” [4] of the same compound?
A: Its value is about 10 fold.

Q: What about the BA [4] of the same compound?
A: The BA was 15% and 15 ± 4%.

Q: And the “AUC0-∞” value [4, 7]?
A: The value was 101 ± 19 µmol·min/L.

Q: Which “Interaction in combination with artemisone (overall, in words)” value [1] does the source give for CCN(CC)c1ccc2nc3c4ccccc4/c(=N\c4ccccn4)cc-3oc2c1 [PhX6] here?
A: Its value is “enhanced synergistically”.

Q: And the CLint scaled [2]?
A: The CLint scaled was 20.2 mL/min/kg.

Q: And the IC50 [3]?
A: The IC50 was 192 ± 4.6 µM.

Q: And the “Selectivity index CHO/resistant Pf strain” value [3]?
A: Its value is >1,000.

Q: And the “Selectivity index CHO/sensitive Pf strain” value [3]?
A: Its value is >1,000.

Q: What about the Vd [4, 5] of the same compound?
A: The Vd was 14.9 ± 2.09 L/kg.

Q: And the clearance [4, 5]?
A: Its clearance is 21.5 ± 1.76 mL/min/kg.

Q: What about the half-life [4, 6] of the same compound?
A: The half-life was 478 ± 43.8 min.

Q: And the half-life ([4]; whole blood, two-compartment behaviour, read-out: Distribution half-life)?
A: Its half-life is 26 min.

Q: What about the Cmax ([4]; whole blood) of the same compound?
A: The Cmax was 3450 ± 680 nM.

Q: What about the Tmax ([4]; whole blood) of the same compound?
A: Its Tmax is 48 ± 7.2 min.

Q: What about the “AUC0-∞” value ([4]; intravenous, whole blood) of the same compound?
A: Its value is 540 ± 44 µmol·min/L.

Q: What about the “Oral Cmax relative to the IC50 value” [4] of the same compound?
A: Its value is about 100 fold.

Q: What about the BA [4] of the same compound?
A: Its BA is 60% and 60 ± 12%.

Q: What about the “AUC0-∞” value [4, 7] of the same compound?
A: Its value is 1,150 ± 216 min∙µmol/L.
